Experimental data reported in US7241783B2, “Thrombopoietin mimetics” (SmithKline Beecham Corporation, priority 2000, dated 2007).
Read-outs that look alike come from different tables or passages of the source.

Legend:
[1] = tested on: BAF-3/TPO-responsive human cell lines; assay: proliferation of BAF-3/TPO-responsive human cell lines (Table 1); format: cell-based
TPO receptor = target: T1, TPO receptor (Homo sapiens, UniProt P40238); assay: Luciferase assay in TPO-responsive BaF3 cell line; format: cell-based, murine; details: at a concentration of 3 uM
T1 construct: expressed in transfected cells; host or cells: murine BaF3 cells (TPO-responsive line)
T1 sequence (P40238 26-635): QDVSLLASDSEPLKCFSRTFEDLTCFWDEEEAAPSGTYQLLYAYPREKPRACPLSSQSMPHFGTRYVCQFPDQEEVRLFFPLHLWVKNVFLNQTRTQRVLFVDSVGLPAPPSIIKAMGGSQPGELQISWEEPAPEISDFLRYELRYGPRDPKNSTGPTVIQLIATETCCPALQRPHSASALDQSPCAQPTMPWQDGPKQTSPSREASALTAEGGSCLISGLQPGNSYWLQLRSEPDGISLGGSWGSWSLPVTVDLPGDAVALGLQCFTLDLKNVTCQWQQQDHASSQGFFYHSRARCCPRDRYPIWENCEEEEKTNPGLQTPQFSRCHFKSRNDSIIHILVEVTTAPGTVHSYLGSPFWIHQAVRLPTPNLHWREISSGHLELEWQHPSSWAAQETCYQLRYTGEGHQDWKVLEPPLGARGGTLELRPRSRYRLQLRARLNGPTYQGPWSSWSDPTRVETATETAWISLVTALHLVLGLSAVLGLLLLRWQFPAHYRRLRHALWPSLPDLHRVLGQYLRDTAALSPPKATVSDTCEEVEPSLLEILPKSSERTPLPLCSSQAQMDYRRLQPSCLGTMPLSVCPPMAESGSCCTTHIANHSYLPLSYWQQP
Description: Compounds of the present invention were tested for potency as mimetics of the TPO receptor in a Luciferase assay such as described in Lamb, et al., Nucleic Acids Research 23: 3283–3289 (1995) and Seidel, et al., Proc. Natl. Acad. Sci., USA 92: 3041–3045 (1995) by substituting a TPO-responsive BaF3 cell line (Vigon et al. Proc. Natl. Acad. Sci. USA 1992, 89, 5640–5644) for the HepG2 cells utilized therein. The murine BaF3 cells express TPO receptors and closely match the pattern of STAT (signal transducers and activators of transcription) activation observed in primary murine and human bone marrow cells in response to TPO.

`O=C(O)c1cccc(NC(=S)NN=Cc2cccc(-c3cccc(C(F)(F)F)c3)c2O)c1` [Example 15.10, 4-(3-carboxyphenyl)-1-[2-hydroxy-3-(3-trifluoromethylphenyl)benzylidene]-3-3-thiosemicarbazide] gave an EC50 [1] of 50 nM and an Efficacy/%TPOmax [1] of 100 %TPOmax.

Work on `Cc1nn(-c2cccc(Cl)c2)c(O)c1C=NNC(=S)Nc1ccc(C(=O)O)cc1` [Example 15.31, 4-(4-carboxyphenyl)-1-[{1-(3-chlorophenyl)-5-hydroxy-3-methylpyrazol-4-yl}methylene]-3-thiosemicarbazide] yielded an Efficacy/%TPOmax [1] of 100 %TPOmax and an EC50 ([1]; BaF3) of 30 nM.

`O=C(O)c1ccc(NC(=S)NN=Cc2cccc(-c3cccc(C(F)(F)F)c3)c2O)cc1` [Example 15.9, 4-(4-carboxyphenyl)-1-[2-hydroxy-3-(3-trifluoromethylphenyl)benzylidene]-3-thiosemicarbazide] gave an Efficacy/%TPOmax [1] of 100 %TPOmax and an EC50 ([1]; BaF3) of 20 nM.

`Cc1ccc(-n2nc(C)c(C=NNC(=S)Nc3cccc(C(=O)O)c3)c2O)cc1` [Example 15.30, 4-(3-carboxyphenyl)-1-[{5-hydroxy-3-methyl-1-(4-methylphenyl)pyrazol-4-yl}methylene]-3-thiosemicarbazide] was tested, and the Efficacy/%TPOmax [1] was 100 %TPOmax and the EC50 ([1]; BaF3) was 30 nM.

In the case of `O=C(O)c1cccc(NC(=S)NN=Cc2cccc(-c3ccc(Cl)cc3)c2O)c1` [Example 15.12, 4-(3-carboxyphenyl)-1-[3-(4-chlorophenyl)-2-hydroxybenzylidene]-3-thiosemicarbazide], the Efficacy/%TPOmax [1] is reported as 85 %TPOmax and the EC50 ([1]; BaF3) is reported as 60 nM.

`Cc1ccc(-n2nc(C)c(C=NNC(=S)Nc3ccc(C(=O)O)cc3)c2O)cc1` [Example 15.29, 4-(4-carboxyphenyl)-1-[{5-hydroxy-3-methyl-1-(4-methylphenyl)pyrazol-4-yl}methylene]-3-thiosemicarbazide] was tested, and the Efficacy/%TPOmax [1] was 100 %TPOmax and the EC50 ([1]; BaF3) was 30 nM.

For `Cc1ccc(-c2cccc(C=NNC(=S)Nc3cccc(C(=O)O)c3)c2O)cc1C` [Example 15.8, 4-(3-carboxyphenyl)-1-[3-(3,4-dimethylphenyl)-2-hydroxybenzylidene]-3-thiosemicarbazide], the “activation, % of control (control is the maximal response to TPO)” value (TPO receptor) was “about 20 % of control”, the Efficacy/%TPOmax [1] was 90 %TPOmax and the EC50 ([1]; BaF3) was 30 nM.
